Read-outs that look alike come from different tables or passages of the source.
Assays:
[1] = target: T1, bradykinin 1 receptor (B1R) of the rat (Rattus norvegicus, UniProt P97583); test: Functional investigation on the rat bradykinin 1 receptor (B1R), Ca2+ FLIPR assay in CHO K1 rB1R cells; assay type: cell-based; conditions: CHO-K1, B1R antagonism rat, test substance 10 μM, read-out: B1R Ant. r [10 μM] % Inhibition
T1 construct: expressed in transfected cells; host or cells: CHO K1 cells
T1 sequence (P97583 1-337): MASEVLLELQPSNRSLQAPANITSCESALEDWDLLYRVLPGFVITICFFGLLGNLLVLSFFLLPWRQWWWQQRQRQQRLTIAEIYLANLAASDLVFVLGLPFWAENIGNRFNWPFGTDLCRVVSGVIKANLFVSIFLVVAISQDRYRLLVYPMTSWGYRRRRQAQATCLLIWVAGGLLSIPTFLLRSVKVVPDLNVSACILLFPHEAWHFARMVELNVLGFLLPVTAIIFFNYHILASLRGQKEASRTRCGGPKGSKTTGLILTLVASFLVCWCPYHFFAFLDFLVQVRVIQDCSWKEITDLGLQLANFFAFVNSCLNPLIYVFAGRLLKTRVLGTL
Method in brief: (§1)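 Cells were dye-loaded with Fluo-4 plus probenecid, then test substances added and Ca2+ influx compared with agonist control for % activation. After 10-20 min, EC80 agonist (Lys-Des-Arg9-bradykinin human; Des-Arg9-bradykinin rat) was applied; suppression gave % inhibition and IC50 values.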

human μ opiate receptor = target: T2, human μ opiate receptor (Homo sapiens, UniProt P35372); test: Affinity for the human μ opiate receptor ([3H]-naloxone displacement, CHO-K1 receptor membrane preparation, SPA); assay type: binding; conditions: 1.5 h, test concentration 1 μM
T2 construct: purchased PerkinElmer Life Sciences, Zaventem, Belgium RB-HOM; host or cells: CHO-K1 cells (membrane preparation)
Method in brief: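 Scintillation proximity binding on human μ receptor membranes from CHO-K1 cells used 1 nmol/l [3H]-naloxone over 90 min at room temperature in 50 mmol/l Tris-HCl, 0.06% BSA. Percent inhibition was recorded at 1 μM.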

[2] = target: T3, human bradykinin 1 receptor (B1R) (Homo sapiens, UniProt P46663); test: Functional investigation on the human bradykinin 1 receptor (B1R), Ca2+ FLIPR assay in CHO K1 hB1R cells; assay type: cell-based; conditions: test substance 10 μM; for inhibition at 10 µM: CHO-K1, B1R antagonism human, read-out: B1R Ant. h [10 μM] % Inhibition
T3 construct: expressed in transfected cells; host or cells: CHO K1 cells
T3 sequence (P46663 1-353): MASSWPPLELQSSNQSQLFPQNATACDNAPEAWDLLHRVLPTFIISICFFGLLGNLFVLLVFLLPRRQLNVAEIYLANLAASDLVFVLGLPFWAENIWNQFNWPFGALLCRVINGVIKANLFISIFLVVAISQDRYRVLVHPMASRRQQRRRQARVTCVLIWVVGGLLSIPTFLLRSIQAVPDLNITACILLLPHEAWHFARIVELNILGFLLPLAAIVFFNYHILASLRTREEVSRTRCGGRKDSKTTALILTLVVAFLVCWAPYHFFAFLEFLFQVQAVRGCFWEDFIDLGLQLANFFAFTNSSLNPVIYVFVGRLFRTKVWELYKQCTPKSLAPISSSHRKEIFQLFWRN
Method in brief: as §1

[3] = Table 3, to be read in the same way as Table 1, read-out: μ
[4] = % inhibition compared with the maximum achievable inhibition

T2 sequence (P35372 whole entry): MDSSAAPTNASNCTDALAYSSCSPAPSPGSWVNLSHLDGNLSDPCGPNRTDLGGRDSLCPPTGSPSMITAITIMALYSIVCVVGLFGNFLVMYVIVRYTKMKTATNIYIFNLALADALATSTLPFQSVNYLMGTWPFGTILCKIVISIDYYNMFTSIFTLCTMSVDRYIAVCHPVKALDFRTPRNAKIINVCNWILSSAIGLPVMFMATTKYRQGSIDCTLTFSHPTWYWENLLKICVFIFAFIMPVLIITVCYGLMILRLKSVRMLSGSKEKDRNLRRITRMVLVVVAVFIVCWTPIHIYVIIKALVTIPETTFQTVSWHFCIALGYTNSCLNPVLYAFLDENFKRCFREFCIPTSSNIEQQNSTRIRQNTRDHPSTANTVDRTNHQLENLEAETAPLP

SMILES	inhibition at 10 µM ([1]; Ca2+ FLIPR, CHO K1 rB1R cells) [%]	inhibition at 1 µM (human μ opiate receptor; [3]) [%]	inhibition at 10 µM ([2]; Ca2+ FLIPR, CHO K1 hB1R cells) [%]	inhibition at 1 µM (human μ opiate receptor; Table 2, read-out: μ receptor) [%]	B1R Ant. h [10 μM] % Inhibition ([2]; B1R antagonism human, Ca2+ FLIPR, CHO K1 hB1R cells) [%]	inhibition at 10 µM [1, 4] [%]	inhibition at 10 µM [2, 4] [%]
COc1cc(C)c(S(=O)(=O)N(C)CCOCC(=O)NCC2CCC(C(c3ccccc3)N3CCCC3)CC2)c(C)c1 (stereo not drawn) [Example 642, 2-(2-(4-methoxy-N,2,6-trimethylphenylsulfonamido)ethoxy)-N-((4-(phenyl(pyrrolidin-1-yl)methyl)cyclohexyl)methyl)acetamide]	105	54	105				
CN(CCOCC(=O)NCC1CCC(C(CCc2ccccc2)N2CCCC2)CC1)S(=O)(=O)c1c(Cl)cc(Cl)cc1Cl (stereo not drawn) [Example 640, N-((4-(3-phenyl-1-(pyrrolidin-1-yl)propyl)cyclohexyl)methyl)-2-(2-(2,4,6-trichloro-N-methylphenylsulfonamido)ethoxy)acetamide]	63	27	101				
COc1cc(C)c(S(=O)(=O)N(C)CCOCC(=O)NC2CCC(C(c3ccccc3)N3CCN(C)CC3)CC2)c(C)c1 (stereo not drawn) [Example 682, 2-(2-(4-methoxy-N,2,6-trimethylphenylsulfonamido)ethoxy)-N-(4-((4-methylpiperazin-1-yl)(phenyl)methyl)cyclohexyl)acetamide]	103	36	104				
CN(CCOCC(=O)NCC1CCC(C(c2ccccc2)N2CCOCC2)CC1)S(=O)(=O)c1c(Cl)cccc1Cl (stereo not drawn) [Example 706, 2-(2-(2,6-dichloro-N-methylphenylsulfonamido)ethoxy)-N-((4-(morpholino(phenyl)methyl)cyclohexyl)methyl)acetamide]	52	7	77				
O=C(COC1CCN(S(=O)(=O)c2c(Cl)cc(Cl)cc2Cl)C1)NCC1CCC(C(CCc2ccccc2)N2CCOCC2)CC1 (stereo not drawn) [Example 745, N-((4-(1-morpholino-3-phenylpropyl)cyclohexyl)methyl)-2-(1-(2,4,6-trichlorophenylsulfonyl)pyrrolidin-3-yloxy)acetamide]	44	8	45				
CN(CCOCC(=O)NCC1CCC(C(c2ccccc2)N2CCCC2)CC1)S(=O)(=O)c1c(Cl)cc(Cl)cc1Cl (stereo not drawn) [Example 626, N-((4-(phenyl(pyrrolidin-1-yl)methyl)cyclohexyl)methyl)-2-(2-(2,4,6-trichloro-N-methylphenylsulfonamido)ethoxy)acetamide]	47	71	105				
CN(CCOCC(=O)NCC1CCC(C(c2ccccc2)N2CCOCC2)CC1)S(=O)(=O)c1ccc(Cl)cc1Cl (stereo not drawn) [Example 705, 2-(2-(2,4-dichloro-N-methylphenylsulfonamido)ethoxy)-N-((4-(morpholino(phenyl)methyl)cyclohexyl)methyl)acetamide]	-9	8	49				
COc1cc(C)c(S(=O)(=O)N(C)CCOCC(=O)NCC2CCC(C(c3ccccc3)N(C)C)CC2)c(C)c1C (stereo not drawn) [Example 623, N-[4-(dimethylaminophenylmethyl)-cyclohexylmethyl]-2-{2-[(4-methoxy-2,3,6-trimethylbenzenesulfonyl)-methylamino]-ethoxy}-acetamide]	41			93	84		
COc1cc(C)c(S(=O)(=O)N2CCC(OCC(=O)NCC3CCC(C(c4ccccc4)N4CCCC4)CC3)C2)c(C)c1 (stereo not drawn) [Example 645, 2-(1-(4-methoxy-2,6-dimethylphenylsulfonyl)pyrrolidin-3-yloxy)-N-((4-(phenyl(pyrrolidin-1-yl)methyl)cyclohexyl)methyl)acetamide]	100	38	101				
COc1cc(C)c(S(=O)(=O)N(C)CCOCC(=O)NC2CCC(C(CCc3ccccc3)N3CCOCC3)CC2)c(C)c1 (stereo not drawn) [Example 662, 2-(2-(4-methoxy-N,2,6-trimethylphenylsulfonamido)ethoxy)-N-(4-(1-morpholino-3-phenylpropyl)cyclohexyl)acetamide]	101	3	104				
O=C(COC1CCCN(S(=O)(=O)c2c(Cl)cc(Cl)cc2Cl)C1)NCC1CCC(C(c2ccccc2)N2CCCC2)CC1 (stereo not drawn) [Example 656, N-((4-(phenyl(pyrrolidin-1-yl)methyl)cyclohexyl)methyl)-2-(1-(2,4,6-trichlorophenylsulfonyl)piperidin-3-yloxy)acetamide]	42	89	76				
O=C(COC1CCN(S(=O)(=O)c2c(Cl)cc(Cl)cc2Cl)C1)NCC1CCC(C(c2ccccc2)N2CCOCC2)CC1 (stereo not drawn) [Example 743, N-((4-(morpholino(phenyl)methyl)cyclohexyl)methyl)-2-(1-(2,4,6-trichlorophenylsulfonyl)pyrrolidin-3-yloxy)acetamide]	10	8	-3				
O=C(COCC1CCCN1S(=O)(=O)c1c(Cl)cc(Cl)cc1Cl)NC1CCC(C(c2ccccc2)N2CCOCC2)CC1 (stereo not drawn) [Example 698, N-(4-(morpholino(phenyl)methyl)cyclohexyl)-2-((1-(2,4,6-trichlorophenylsulfonyl)pyrrolidin-2-yl)methoxy)acetamide]	86	40	39				
CN(CCOCC(=O)NC1CCC(C(CCc2ccccc2)N2CCCCC2)CC1)S(=O)(=O)c1ccc(Cl)cc1Cl (stereo not drawn) [Example 661, 2-(2-(2,4-dichloro-N-methylphenylsulfonamido)ethoxy)-N-(4-(3-phenyl-1-(piperidin-1-yl)propyl)cyclohexyl)acetamide]	25	21	73				
COc1cc(C)c(S(=O)(=O)N(C)CCOCC(=O)N2CCC(C(CCc3ccccc3)N3CCN(C)CC3)CC2)c(C)c1 (stereo not drawn) [Example 801, 4-methoxy-N,2,6-trimethyl-N-(2-(2-(4-(1-(4-methylpiperazin-1-yl)-3-phenylpropyl)piperidin-1-yl)-2-oxoethoxy)ethyl)benzenesulfonamide]		21				97	106
COc1cc(C)c(S(=O)(=O)N(C)CCOCC(=O)NC2CCC(C(c3ccccc3)N3CCCCC3)CC2)c(C)c1C (stereo not drawn) [Example 617, 2-{2-[(4-methoxy-2,3,6-trimethylbenzenesulfonyl)-methylamino]-ethoxy}-N-[4-(phenylpiperidin-1-yl-methyl)-cyclohexyl]-acetamide]	48		86	29			
COc1cc(C)c(S(=O)(=O)N2CCCCC2COCC(=O)NC2CCC(C(CCc3ccccc3)N3CCCCC3)CC2)c(C)c1 (stereo not drawn) [Example 734, 2-((1-(4-methoxy-2,6-dimethylphenylsulfonyl)piperidin-2-yl)methoxy)-N-(4-(3-phenyl-1-(piperidin-1-yl)propyl)cyclohexyl)acetamide]	104	80	104				
O=C(COCC1CCCN1S(=O)(=O)c1c(Cl)cc(Cl)cc1Cl)NCC1CCC(C(c2ccccc2)N2CCOCC2)CC1 (stereo not drawn) [Example 710, N-((4-(morpholino(phenyl)methyl)cyclohexyl)methyl)-2-((1-(2,4,6-trichlorophenylsulfonyl)pyrrolidin-2-yl)methoxy)acetamide]	92	24	42				

— patent US8106055B2, “Substituted amide compounds” (Gruenenthal GmbH, priority 2007, dated 2012)
